Source: PMC8910009, “Identification of Novel and Potent Indole-Based Benzenesulfonamides as Selective Human Carbonic Anhydrase II Inhibitors: Design, Synthesis, In Vitro, and In Silico Studies” (International Journal of Molecular Sciences, 2022)

Assays:
hCA I = hCA I (Homo sapiens, UniProt P00915); assay: stopped flow CO2 hydrase assay, hCA I
Description: (§1) The tested CA panel was comprised of the two ubiquitously expressed cytosolic hCA I and II isoforms, along with the two tumor-related transmembrane hCA IX and XII isoforms. The activity of the synthesized hybrids was reported as Ki (inhibition constant) to assess their binding affinity. […] The inhibitor and enzyme solutions were first preincubated together for 15 min at room temperature to enable for the generation of the E–I complex. Photophysics stopped-flow instrument was used to measure the CA-catalyzed CO2 hydration activity. Phenol red (at a concentration of 0.2 mM) was added as an indicator after a period of 10–100 s in the CA-catalyzed CO2 hydration reaction at an absorbance maximum of 557 nm, with 20 mM Hepes (pH = 7.4) and 10 mM NaClO4 (to maintain constant ionic strength) [30]. […] In the initial 5–10% of the reaction, at least six traces were examined to determine the initial velocity for each inhibitor. Similarly, the total measured rates were used to measure the uncatalyzed rates [32]. Distilled–deionized water was used in the preparation of the Stock inhibitor solutions (10 mM), as well as dilutions up to 0.01 nM. The inhibition constants were measured utilizing PRISM 3, whereas the Lineweaver–Burk plots were used to measure the kinetic parameters which comprised the mean of at least three separate measurements [33, 34].

hCA II = hCA II (Homo sapiens, UniProt P00918); assay: stopped flow CO2 hydrase assay, hCA II
Description: as §1

hCA XII = hCA XII (Homo sapiens, UniProt O43570); assay: stopped flow CO2 hydrase assay, hCA XII
Description: as §1

hCA IX = hCA IX (Homo sapiens, UniProt Q16790); assay: stopped flow CO2 hydrase assay, hCA IX
Description: as §1

Chain of hCA XII (O43570 25-354): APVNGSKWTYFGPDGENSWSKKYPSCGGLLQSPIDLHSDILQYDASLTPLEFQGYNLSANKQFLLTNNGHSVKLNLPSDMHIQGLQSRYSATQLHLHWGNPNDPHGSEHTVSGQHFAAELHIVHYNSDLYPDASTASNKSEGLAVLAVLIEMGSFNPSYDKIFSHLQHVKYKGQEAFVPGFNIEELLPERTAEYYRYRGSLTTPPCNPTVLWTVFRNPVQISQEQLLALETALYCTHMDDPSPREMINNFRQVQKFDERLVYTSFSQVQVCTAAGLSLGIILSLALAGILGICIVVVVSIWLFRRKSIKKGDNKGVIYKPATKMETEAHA
Chain of hCA I (P00915 whole entry): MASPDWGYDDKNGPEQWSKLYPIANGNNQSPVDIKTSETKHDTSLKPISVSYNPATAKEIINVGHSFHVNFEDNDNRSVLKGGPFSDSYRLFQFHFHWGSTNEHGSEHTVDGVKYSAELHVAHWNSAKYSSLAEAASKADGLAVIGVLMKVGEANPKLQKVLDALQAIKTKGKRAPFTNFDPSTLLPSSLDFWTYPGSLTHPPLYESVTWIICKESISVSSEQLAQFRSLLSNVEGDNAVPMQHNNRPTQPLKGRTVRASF

| SMILES | Ki (hCA I) | Ki (hCA II) | selectivity for hCA II over hCA I (hCA II; ratio of Ki values) | selectivity for hCA II over hCA IX (hCA II; ratio of Ki values) | selectivity for hCA II over hCA XII (hCA II; ratio of Ki values) | Ki (hCA XII) | Ki (hCA IX) |
| --- | --- | --- | --- | --- | --- | --- | --- |
| NS(=O)(=O)c1cccc(NC(=O)CCc2c[nH]c3ccccc23)c1 [Compound 2a, 3-(1H-indol-3-yl)-N-(3-sulfamoylphenyl)propanamide] | 0.0798 µM | 0.0059 µM | 13 fold | 34 fold | 9 fold | 0.0542 µM | 0.206 µM |
| NS(=O)(=O)c1ccc(O)c(NC(=O)CCc2c[nH]c3ccccc23)c1 [Compound 2b, N-(2-hydroxy-5-sulfamoylphenyl)-3-(1H-indol-3-yl)propanamide] | 2.8 µM | 0.0073 µM |  |  |  | 0.0851 µM | 0.286 µM |
| NS(=O)(=O)c1ccc(CCNC(=O)CCc2c[nH]c3ccccc23)cc1 [Compound 2c, 3-(1H-indol-3-yl)-N-(4-sulfamoylphenethyl)propanamide] | 0.217 µM | 0.009 µM |  |  |  | 0.0369 µM | 0.222 µM |
| NS(=O)(=O)c1ccc(NC(=O)CCc2c[nH]c3ccccc23)cc1 [Compound 2d, 3-(1H-indol-3-yl)-N-(4-sulfamoylphenyl)propanamide] | 0.0976 µM | 0.0071 µM |  |  |  | 0.0422 µM | 0.166 µM |
| NS(=O)(=O)c1cccc(NC(=O)c2ccc3[nH]ccc3c2)c1 [Compound 2e, N-(3-sulfamoylphenyl)-1H-indole-5-carboxamide] | 5.57 µM | 0.0455 µM |  |  |  | 0.0909 µM | 0.766 µM |
| NS(=O)(=O)c1ccc(NC(=O)c2ccc3[nH]ccc3c2)cc1 [Compound 2f, N-(4-sulfamoylphenyl)-1H-indole-5-carboxamide] | 3.11 µM | 0.016 µM |  |  |  | 0.257 µM | 0.165 µM |
| NS(=O)(=O)c1ccc(O)c(NC(=O)c2ccc3[nH]ccc3c2)c1 [Compound 2g, N-(2-hydroxy-5-sulfamoylphenyl)-1H-indole-5-carboxamide] | 4.77 µM | 0.68 µM |  |  |  | 0.0853 µM | 0.28 µM |
| NS(=O)(=O)c1ccc(CCNC(=O)c2ccc3[nH]ccc3c2)cc1 [Compound 2h, N-(4-sulfamoylphenethyl)-1H-indole-5-carboxamide] | 0.554 µM | 0.0086 µM |  |  |  | 0.236 µM | 0.24 µM |
| NS(=O)(=O)c1ccccc1NC(=O)c1ccc2[nH]ccc2c1 [Compound 2i, N-(2-sulfamoylphenyl)-1H-indole-5-carboxamide] | 7.45 µM | 0.0719 µM |  |  |  | 0.0894 µM | 0.635 µM |
| NS(=O)(=O)c1cccc(NC(=O)c2ccc3cc[nH]c3c2)c1 [Compound 2j, N-(3-sulfamoylphenyl)-1H-indole-6-carboxamide] | 5.4 µM | 0.0948 µM |  |  |  | 0.0405 µM | 0.654 µM |
| NS(=O)(=O)c1ccc(NC(=O)c2ccc3cc[nH]c3c2)cc1 [Compound 2k, N-(4-sulfamoylphenyl)-1H-indole-6-carboxamide] | 4.66 µM | 0.833 µM |  |  |  | 0.0838 µM | 0.428 µM |
| NS(=O)(=O)c1ccc(O)c(NC(=O)c2ccc3cc[nH]c3c2)c1 [Compound 2l, N-(2-hydroxy-5-sulfamoylphenyl)-1H-indole-6-carboxamide] | 4.28 µM | 0.682 µM |  |  |  | 0.0737 µM | 0.423 µM |
| NS(=O)(=O)c1ccc(CCNC(=O)c2ccc3cc[nH]c3c2)cc1 [Compound 2m, N-(4-sulfamoylphenethyl)-1H-indole-6-carboxamide] | 0.253 µM | 0.0388 µM |  |  |  | 0.0851 µM | 0.278 µM |
| NS(=O)(=O)c1ccccc1NC(=O)c1ccc2cc[nH]c2c1 [Compound 2n, N-(2-sulfamoylphenyl)-1H-indole-6-carboxamide] | 7.51 µM | 0.67 µM |  |  |  | 0.0369 µM | 0.487 µM |
| NS(=O)(=O)c1ccc(C(=O)Nc2ccc3[nH]ccc3c2)cc1 [Compound 2o, N-(1H-indol-5-yl)-4-sulfamoylbenzamide] | 0.0566 µM | 0.0075 µM |  |  |  | 0.0669 µM | 0.17 µM |
